Assay results published in US4210749A, “Substituted 1,2,4,5-tetrahydro-3H,3 benzazepines” (priority 1979, dated 1980).
Where a name gives a salt, the structure may show the parent alone. Read-outs that look alike come from different tables or passages of the source.

Tests used:
Format in all cases: in vivo
[1] = Narcotic antagonism I.P., Table IV
[2] = I.P. symptomatology (highest tolerated dose, median lethal dose), Table IV; details: for LD50 / MTD: in vivo, ip; for MTD: read-out: HTD (highest tolerated dose)
[3] = test system: sciatic block; assay: Local anesthetic sciatic block, Table IV; details: 1%
[4] = Analgesic activity, writhing method; details: PO
[5] = Analgesic activity, hot plate method

Compound | Narcotic Antagonism [1] | LD50 [2] [mg/kg] | MTD [2] [mg/kg] | Local Anesthetic Sciatic Block [3] | further results
Oc1ccc2c(c1)CCNCC2 [Example 2, 7-Hydroxy-1,2,4,5-tetrahydro-3H,3-benzazepine] | Negative | 200 | 10 | Positive | –
Oc1ccc2c(c1)CCN(Cc1ccco1)CC2 [Example 60, 3-Furfuryl-7-hydroxy-1,2,4,5-tetrahydro-3H,3-benzazepine hydrochloride] | Negative | ~200 | 10 | Positive | –
CCN1CCc2ccc(O)cc2CC1 [Example 21, 3-Ethyl-7-hydroxy-1,2,4,5-tetrahydro-3H,3-benzazepine] | Positive | 80 | 30 | – | –
COc1ccc2c(c1)CCN(CC1CCC1)CC2 [Example 13, 3-Cyclobutylmethyl-7-methoxy-1,2,4,5-tetrahydro-3H,3-benzazepine] | Negative | 80 | 30 | – | –
CC1Cc2cc(O)ccc2CCN1C (single isomer, unassigned; (+)) [Example 57, (+)-8-Hydroxy-2,3-dimethyl-1,2,4,5-tetrahydro-3H,3-benzazepine hydrochloride] | – | > 100 | 10 | Positive | –
COc1ccc2c(c1)CC(C)N(CC=C(C)C)CC2 (stereo not shown) [Example 33, 3-(3,3-Dimethylallyl)-8-methoxy-2-methyl-1,2,4,5-tetrahydro-3H,3-benzazepine hydrochloride] | Negative | 50 | 1 | – | –
COc1ccc2c(c1)CC(C)N(CCc1ccccc1C)CC2 (stereo not shown) [Example 59, 3-(o-Methylphenethyl)-8-methoxy-2-methyl-1,2,4,5-tetrahydro-3H,3-benzazepine hydrochloride] | Negative | ~60 | 0.3 | Insoluble | –
COc1ccc2c(c1)CC(C)NCC2 (stereo not shown) [Example 32, 8-Methoxy-2-methyl-1,2,4,5-tetrahydro-3H,3-benzazepine] | Negative | ~60 | ~10 | Positive | –
CC(C)=CCN1CCc2ccc(O)cc2CC1C (single isomer, unassigned; (+)) [Example 56, (+)-3-(3,3-Dimethylallyl)-8-hydroxy-2-methyl-1,2,4,5-tetrahydro-3H,3-benzazepine hydrochloride] | – | – | – | Positive | Narcotic Antagonism ([1]; hydrochloride): Negative; HTD (highest tolerated dose) [2]: 10 mg/kg
COc1ccc2c(c1)CC(C)NCC2 (single isomer, unassigned; (+)) [Example 53, (+)-8-Methoxy-2-methyl-1,2,4,5-tetrahydro-3H,3-benzazepine hydrochloride] | Negative | – | – | Positive | HTD (highest tolerated dose) [2]: 10 mg/kg
C[C@@H]1Cc2ccccc2CCN1 (single isomer, unassigned) [Example 49, (+)-2-Methyl-1,2,4,5-tetrahydro-3H,3-benzazepine hydrochloride] | Negative | 200 | 30 | Positive | –
COc1ccc2c(c1)CC(C)N(CCc1ccc(O)cc1)CC2 (stereo not shown) [Example 58, 3-(P-Hydroxyphenethyl-8-methoxy-2-methyl-1,2,4,5-tetrahydro-3H,3-benzazepine hydrochloride] | Negative | > 300 | 1 | Insoluble | –
Oc1ccc2c(c1)CCN(CC1CCC1)CC2 [Example 9, 3-Cyclobutylmethyl-7-hydroxy-1,2,4,5-tetrahydro-3H,3-benzazepine] | Negative | 80 | 20 | Positive | –
C[C@@H]1Cc2ccccc2CCN1C (single isomer, unassigned) [Example 54, (-)-2,3-Dimethyl-1,2,4,5-tetrahydro-3H,3-benzazepine hydrochloride] | Negative | 60 | 3 | Positive | –
COc1ccc2c(c1)CC(C)N(CC1CC1)CC2 (stereo not shown) [Example 42, 3-Cyclopropylmethyl-8-methoxy-2-methyl-1,2,4,5-tetrahydro-3H,3-benzazepine hydrochloride] | Negative | 60 | 10 | – | –
CN1CC[C@]23c4c5ccc(O)c4O[C@H]2[C@@H](O)C=C[C@H]3[C@H]1C5 [Morphine, reference compound] | – | – | – | – | Writhing ED50 [4]: 3 mg/kg; Hot Plate ED50 ([5]; IP): 2.5 mg/kg; Hot Plate ED50 ([5]; PO): 14 mg/kg
Oc1ccc2c(c1)CCN(CC1CC1)CC2 [Example 8, 3-Cyclopropylmethyl-7-hydroxy-1,2,4,5-tetrahydro-3H,3-benzazepine] | Positive | 30 | 20 | Positive | –
CC(C)=CCN1CCc2ccc(O)cc2CC1C (single isomer, unassigned; (-)) [Example 55, (-)-3-(3,3-Dimethylallyl)-8-hydroxy-2-methyl-1,2,4,5-tetrahydro-3H,3-benzazepine hydrochloride] | – | – | 10 | Positive | –
COc1ccc(CCN2CCc3ccc(OC)cc3CC2C)cc1 (stereo not shown) [Example 61, 8-Methoxy-3-(p-methoxyphenethyl-2-methyl-1,2,4,5-tetrahydro-3H,3-benzazepine hydrochloride] | Negative | ~60 | 3 | Positive | –
COc1ccc2c(c1)CC(C)N(C)CC2 (single isomer, unassigned; (+)) [Example 62, (+)-8-Methoxy-2,3-dimethyl-1,2,4,5-tetrahydro-3H,3-benzazepine hydrochloride] | Negative | – | – | Positive | HTD (highest tolerated dose) ([2]; hydrochloride): 10 mg/kg
C[C@H]1Cc2ccccc2CCN1 (single isomer, unassigned) [Example 48, (-)-2-Methyl-1,2,4,5-tetrahydro-3H,3-benzazepine] | Some | 60 | 30 | Positive | –
Oc1ccc2c(c1)CCN(C[C@@H]1C[C@H]1c1ccccc1)CC2 (relative stereo) [Example 30, 7-Hydroxy-3(trans-2-phenylcyclopropylmethyl)-1,2,4,5-tetrahydro-3H,3-benzazepine] | Negative | > 1000 | 1000 | – | –
C[C@H]1Cc2ccccc2CCN1C (single isomer, unassigned) [Example 50, (+)-2,3-Dimethyl-1,2,4,5-tetrahydro-3H,3-benzazepine hydrochloride] | Negative | – | 10 | Positive | LD50 (median lethal dose) [2]: 25 mg/kg
CC(C)=CCN1CCc2ccc(OC(=O)C34CC5CC(CC(C5)C3)C4)cc2CC1 [Example 6, 7-(Adamantanecarbonyloxy)-3-(3,3-dimethylallyl)-1,2,4,5-tetrahydro-3H,3-benzazepine hydrochloride] | Positive | > 300 | 10 | – | –
COc1ccc2c(c1)CC(C)N(CC=Cc1ccccc1)CC2 (stereo not shown) [Example 44, 8-Methoxy-2-methyl-3-(3-phenylallyl)-1,2,4,5-tetrahydro-3H,3-benzazepine hydrochloride] | Negative | 60 | 10 | Insoluable | –
COc1ccc2c(c1)CC(C)NCC2 (single isomer, unassigned; (-)) [Example 51, (-)8-Methoxy-2-methyl-1,2,4,5-tetrahydro-3H,3-benzazepine] | Negative | – | 10 | Positive | –
COc1ccc2c(c1)CC(C)N(C)CC2 (single isomer, unassigned; (-)) [Example 63, (-)-8-Methoxy-2,3-dimethyl-1,2,4,5-tetrahydro-3H,3-benzazepine hydrochloride] | Negative | – | – | Positive | HTD (highest tolerated dose) ([2]; hydrochloride): 3 mg/kg
COc1ccc2c(c1)CCN(CC=C(C)C)CC2 [Example 3, 3-(3,3-Dimethylallyl)-7-methoxy-1,2,4,5-tetrahydro-3H,3-benzazepine] | Negative | 50 | 30 | Positive | –
